Data published in patent US5716929A (Vertex Pharmaceuticals, Inc., priority 1995, dated 1998).
Square brackets hold non-standard residues; d marks the D form. Peptide text beside a SMILES is read from it. * marks the point of attachment. ξ: configuration not given here. Hyp = O=C(O)[C@@H]1C[C@@H](O)CN1; Tic = O=C(O)[C@@H]1Cc2ccccc2CN1; ξD = NC(CC(=O)O)C(=O)O; Allyl = C=CC*

Target: T1, interleukin-1β converting enzyme (ICE) (Homo sapiens, UniProt P29466)
T1 sequence (P29466 120-297 limits assumed): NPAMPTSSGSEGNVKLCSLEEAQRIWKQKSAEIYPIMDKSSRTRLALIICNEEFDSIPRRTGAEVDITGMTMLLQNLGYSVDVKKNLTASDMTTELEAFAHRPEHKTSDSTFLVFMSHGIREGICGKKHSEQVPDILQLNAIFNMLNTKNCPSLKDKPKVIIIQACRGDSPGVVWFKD
T1 sequence (P29466 317-404 limits assumed): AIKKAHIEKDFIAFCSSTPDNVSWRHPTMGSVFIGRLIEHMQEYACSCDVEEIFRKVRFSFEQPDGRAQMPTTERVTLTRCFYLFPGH
Test: Enzyme assay with UV-visible substrate (Succinyl-Tyr-Val-Ala-Asp-pNitroanilide)
Type: biochemical
Procedure: 1. Enzyme assay with UV-visible substrate
This assay is run using an Succinyl-Tyr-Val-Ala-Asp-pNitroanilide substrate (SEQ ID NO: 1). Synthesis of analogous substrates is described by L. A. Reiter (Int. J. Peptide Protein Res. 43, 87-96 (1994)). The assay mixture contains: […]
The visible ICE assay is run in a 96-well microtiter plate. Buffer, ICE and DMSO (if inhibitor is present) are added to the wells in the order listed. The components are left to incubate at room temperature for 15 minutes starting at the time that all components are present in all wells. The microtiter plate reader is set to incubate at 37° C. After the 15 minute incubation, substrate is added directly to the wells and the reaction is monitored by following the release of the chromophore (pNA) at 405-603 nm at 37° C. for 20 minutes. A linear fit of the data is performed and the rate is calculated in mOD/min. DMSO is only present during experiments involving inhibitors, buffer is used to make up the volume to 100 μl in the other experiments.
For determination of enzyme inhibition constants (Ki) or the mode of inhibition (competitive, uncompetitive or noncompetitive), the rate data determined in the enzyme assays at varying inhibitor concentrations are computer-fit to standard enzyme kinetic equations (see I. H. Segel, Enzyme Kinetics, Wiley-Interscience, 1975).

Row | SMILES | Ki (Example 4 table) [nM] | other results
1 | CC(C)[C@H](NC(=O)OCc1ccccc1)C(=O)N[C@@H](C)C(=O)N[C@H](CC(=O)O)C(=O)COCc1c(Cl)cccc1Cl (mixture of isomers) [Compound 84a, (R,S) N-[N-(Phenylmethyloxy)carbonyl-valinyl-alaninyl]-3-amino-5-(2,6-dichlorophenylmethyloxy)-4-oxo-pentanoic acid] | 100 | 
2 | CC(=O)N[C@@H](Cc1ccc(O)cc1)C(=O)N[C@H](C(=O)N[C@@H](C)C(=O)N[C@H](CC(=O)O)C(=O)COCc1c(Cl)cccc1Cl)C(C)C (mixture of isomers) [Compound 84b, (R,S)N-[N-(Acetyl)tyrosinyl-valinyl-alaninyl]-3-amino-5-(2,6-dichlorophenylmethyloxy)-4-oxo-pentanoic acid] | 19 | 
3 | CC(C(=O)N[C@H](C=O)CC(=O)O)N1CCN(C(=O)CCc2ccccc2)C[C@H](NC(=O)CCc2ccccc2)C1=O (mixture of isomers) [Compound 115, 4-Oxo-3(S)-{2(R,S)-[7-oxo-4-(3-phenyl-propionyl)-6(S)-(3-phenyl-propionylamino)-[1,4]diazepan-1-yl]propionylamino}-butyric acid] |  | Ki (Example 6 table): 345 nM
4 | O=C[C@H](CC(=O)O)NC(=O)C1CCc2ncc(NC(=O)c3ccccc3)c(=O)n21 (single isomer, unassigned) [Compound 7a] | 35000 | 
5 | O=C[C@H](CC(=O)O)NC(=O)C1CCc2ncc(NC(=O)c3ccccc3)c(=O)n21 (single isomer, unassigned) [Compound 7b] | 1200 | 
6 | C[C@H](NC(=O)c1ncc[nH]1)C(=O)N[C@H](C=O)CC(=O)O [Compound 20a, (3S)3-[N-(Imidazole-2-carbonyl)-L-alaninyl]amino-4-oxobutanoic acid] |  | Ki (Example 2 table): 3200 nM
7 | C[C@H](NC(=O)c1nc(Cc2ccccc2)c[nH]1)C(=O)N[C@H](C=O)CC(=O)O [Compound 20b, (3S)3-[N-(4-Benzylimidazole-2-carbonyl)-L-alaninyl]amino-4-oxobutanoic acid] | 850 | 
8 | C[C@H](NC(=O)c1ncc(CCc2ccccc2)[nH]1)C(=O)N[C@H](C=O)CC(=O)O [Compound 20c, (3S)3-{N-[4-(2-Phenylethyl)imidazole-2-carbonyl]-L-alaninyl}amino-4-oxobutanoic acid] |  | Ki (Example 2 table): 950 nM
9 | C[C@H](NC(=O)c1nc(CCCc2ccccc2)c[nH]1)C(=O)N[C@H](C=O)CC(=O)O [Compound 20d, (3S)3-{N-[4-(3-Phenylpropyl)imidazole-2-carbonyl]-L-alaninyl}amino-4-oxo-butanoic acid] | 100 | 
10 | O=C[C@H](CC(=O)O)NC(=O)[C@@H]1CCCN1C(=O)c1nc(CCc2ccccc2)c[nH]1 [Compound 21c, (3S)3{N-[4-(2-Phenylethyl)imidazole-2-carbonyl]-L-prolinyl}amino-4-oxobutanoic acid] | 640 | 
11 | O=C[C@H](CC(=O)O)NC(=O)[C@@H]1CCCN1C(=O)c1nc(CCCc2ccccc2)c[nH]1 [Compound 21d, (3S) 3-{N-[4-(3-Phenylpropyl)imidazole-2-carbonyl]-L-prolinyl}amino-4-oxo-butanoic acid] | 240 | 
12 | COc1ccc(CCCc2c[nH]c(C(=O)N3CCC[C@H]3C(=O)N[C@H](C=O)CC(=O)O)n2)cc1 [Compound 21e, (3S)3-{N-[4-[3-(4-Methoxyphenyl)propyl]imidazole-2-carbonyl]-L-prolinyl}amino-4-oxobutanoic acid] | 220 | 
13 | O=C[C@H](CC(=O)O)NC(=O)[C@@H]1CCCN1C(=O)c1nc(CCCc2ccc(O)cc2)c[nH]1 [Compound 21f, (3S)3-{N-[4-[3-(4-Hydroxyphenyl)propyl]imidazole-2-carbonyl]-L-prolinyl}amino-4-oxobutanoic acid] | 170 | 
14 | COc1ccc(CCCc2cnc(C(=O)N3C[C@H](Oc4ccccc4)C[C@H]3C(=O)N[C@H](C=O)CC(=O)O)[nH]2)cc1 [Compound 22e, 3(S)-[(1-{5-[3-(4-Methoxyphenyl)propyl]-1H-imidazole-2-carbonyl}-4(R)-phenoxypyrrolidine-2(S)-carbonyl)amino]-4-oxobutanoic acid] |  | Ki (Example 6 table): 190 nM
15 | C[C@H](NC(=O)c1cnc(CCc2ccccc2)[nH]1)C(=O)N[C@H](C=O)CC(=O)O [Compound 33a, (3S)3-{N-[2-(2-Phenylethyl)imidazole-4-carbonyl]-L-alaninyl}amino-4-oxobutanoic acid] |  | Ki (Example 2 table): 5500 nM
16 | C[C@H](NC(=O)c1cnc(Cc2ccccc2)[nH]1)C(=O)N[C@H](C=O)CC(=O)O [Compound 33c, (3S)3-[N-(2-Benzylimidazole-4-carbonyl)-L-alaninyl]amino-4-oxobutanoic acid] |  | Ki (Example 2 table): 8600 nM
17 | C[C@H](NC(=O)c1ccc[nH]1)C(=O)N[C@H](C=O)CC(=O)O [Compound 36a, (3S)3-[N-(Pyrrole-2-carbonyl)-L-alaninyl]amino-4-oxobutanoic acid] |  | Ki (Example 2 table): 4700 nM
18 | C[C@H](NC(=O)c1ccc(Cc2ccccc2)[nH]1)C(=O)N[C@H](C=O)CC(=O)O [Compound 36b, (3S)3-[N-(5-Benzylpyrrole-2-carbonyl)-L-alaninyl]amino-4-oxobutanoic acid] | 800 | 
19 | O=C[C@H](CC(=O)O)NC(=O)[C@@H]1CCCN1C(=O)c1cc2ccccc2[nH]1 [Compound 39, (3S) 3-[1-(Indole-2-carbonyl)-L-prolinyl]amino-4-oxobutanoic acid] | 2500 | 
20 | Cc1c[nH]c2c(=O)n(CC(=O)N[C@H](C=O)CC(=O)O)cnc12 [Compound 43, (3S)-3-[2-(3,5-Dihydro-7-methyl-4-oxo-4H-pyrrolo[3,2-d]pyrimidin-3-yl)-1-oxo-ethylamino]-4-oxobutanoic acid] | 20000 | 
21 | CC(C(=O)N[C@H](C=O)CC(=O)O)n1c(Cc2ccccc2)ccc(NC(=O)CCc2ccccc2)c1=O (stereo partly drawn) [Compound 54h, 3(S), N(2(R,S))3-(2-(6-Benzyl-1,2-dihydro-2-oxo-3-(3-phenylpropionyl)amino-1-pyridyl)propionylamino)-4-oxobutanoic acid] | 970 | 
22 | C=CCO[C@@H]1C[C@@H](C(=O)N[C@H](C=O)CC(=O)O)N(C(=O)[C@@H](NC(=O)[C@H](Cc2ccc(O)cc2)NC(C)=O)C(C)C)C1 [Compound 85, N-(N-Acetyl-tyrosinyl-valinyl-(4 (R)-allyloxyprolinyl))-3(S)-amino-4-oxobutanoic acid] (Ac-YV[Hyp](Allyl)D-aldehyde) |  | Ki (Example 6 table): 3.5 nM
23 | O=C(O)C[C@H](NC(=O)Cn1c(Cc2ccccc2)ccc(NC(=O)CCc2ccccc2)c1=O)C(=O)CO [Compound 88, N-2-(6-Benzyl-1,2-dihydro-2-oxo-3-(3-phenylpropionyl)amino-1-pyridyl)acetyl-3(S)-amino-5-hydroxy-4-oxo-pentanoic acid] |  | Ki (Example 6 table): 900 nM
24 | CC(=O)N[C@@H](Cc1ccc(O)cc1)C(=O)N[C@H](C(=O)N[C@@H](C)C(=O)N[C@@H](CC(=O)O)C(=O)COCc1ccccc1Cl)C(C)C [Compound 89, N-Acetyl-(S)-tyrosinyl-(S)-valinyl-(S)-alaninyl-3(S)-amino-5-(2-chlorobenzyloxy)-4-oxo-pentanoic acid] |  | Ki (Example 6 table): 18 nM
25 | O=C[C@H](CC(=O)O)NC(=O)CN1C(=O)[C@@H](NC(=O)CCc2ccccc2)CN(C(=O)CCc2ccccc2)c2ccccc21 [Compound 106b] |  | Ki (Example 6 table): 200 nM
26 | O=C(O)C[C@H](NC(=O)CN1C(=O)[C@@H](NC(=O)CCc2ccccc2)CN(C(=O)CCc2ccccc2)c2ccccc21)C(=O)c1ncc(-c2c(Cl)cccc2Cl)o1 [Compound 108c, 4-[5-(2,6-Dichlorophenyl)oxazol-2-yl]-4-oxo-3(S)-{2-[2-oxo-5-(3-phenylpropionyl)-3(S)-(3-phenylpropionylamino)-2,3,4,5-tetrahydrobenzo[b][1,4]diazepin-1-yl]-acetylamino}butyric acid] |  | Ki (Example 6 table): 430 nM
27 | O=CC(CC(=O)O)NC(=O)CN1C(=O)C(NC(=O)OCc2ccccc2)CN(Cc2ccccc2)C(=O)C1Cc1ccccc1 (stereo not shown) [Compound 121, 3-{2-[2,4-Dibenzyl-3,7-dioxo-6-(N-benzyloxycarbonylamino)-[1,4]diazepan-1-yl]-acetylamino}-4-oxo-butyric acid] |  | Ki (Example 6 table): 4300 nM
28 | CC(=O)N[C@@H](Cc1ccc(O)cc1)C(=O)N[C@H](C(=O)N1Cc2ccccc2C[C@H]1C(=O)NC(C=O)CC(=O)O)C(C)C (stereo partly drawn) [L, N-[2-(N-Acetyl-tyrosinyl-valinyl)-(S)-1,2,3,4-tetrahydroisoquinoline-3-carbonyl]-3-amino-oxobutanoic acid] (Ac-YV[Tic][ξD]-aldehyde) |  | Ki (Example 2 table): 14 nM
